Laboratory results: paper PMC7827406, “Structure–Activity Relationship (SAR) Study of Spautin-1 to Entail the Discovery of Novel NEK4 Inhibitors” (International Journal of Molecular Sciences, 2021)
Read-outs that look alike come from different tables or passages of the source.

What was measured:
Experiment in all cases: biochemical
Parameters in all cases: Eurofins KinaseProfiler full panel at Km ATP, residual kinase activity (%) relative to DMSO
PIP5K1g(h) = molecular target: T1, PIP5K1g(h) (Homo sapiens, UniProt O60331)
T1 construct: gene PIP5K1C
T1 sequence (O60331 whole entry): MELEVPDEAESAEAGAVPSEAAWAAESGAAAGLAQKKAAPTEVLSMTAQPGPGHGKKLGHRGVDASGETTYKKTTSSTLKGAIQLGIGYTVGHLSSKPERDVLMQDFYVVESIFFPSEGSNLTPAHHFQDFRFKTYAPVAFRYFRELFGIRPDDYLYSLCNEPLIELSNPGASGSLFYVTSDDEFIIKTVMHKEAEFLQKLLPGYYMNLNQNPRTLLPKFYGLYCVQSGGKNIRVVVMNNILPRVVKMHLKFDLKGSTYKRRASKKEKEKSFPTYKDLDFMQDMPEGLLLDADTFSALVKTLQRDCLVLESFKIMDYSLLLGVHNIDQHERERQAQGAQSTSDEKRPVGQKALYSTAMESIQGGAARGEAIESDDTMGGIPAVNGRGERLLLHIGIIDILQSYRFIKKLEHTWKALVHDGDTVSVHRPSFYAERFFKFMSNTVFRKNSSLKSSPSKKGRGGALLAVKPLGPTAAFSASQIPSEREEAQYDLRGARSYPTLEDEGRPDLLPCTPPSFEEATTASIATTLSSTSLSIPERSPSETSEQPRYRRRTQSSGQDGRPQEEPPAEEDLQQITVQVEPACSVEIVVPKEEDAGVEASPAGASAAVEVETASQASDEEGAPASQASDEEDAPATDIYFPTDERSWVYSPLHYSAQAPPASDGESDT
Summary of the method: (§1)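 Two 10 µM single-concentration screens were run: a competition-binding screen, in which DNA-tagged kinase bound to immobilized ligands was quantified by qPCR, and a radiometric activity panel at Km ATP. Each is expressed as residual kinase activity (%).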

MSSK1(h) = molecular target: T2, MSSK1(h) (Homo sapiens, UniProt Q9UPE1)
T2 construct: gene SRPK3
T2 sequence (Q9UPE1 whole entry): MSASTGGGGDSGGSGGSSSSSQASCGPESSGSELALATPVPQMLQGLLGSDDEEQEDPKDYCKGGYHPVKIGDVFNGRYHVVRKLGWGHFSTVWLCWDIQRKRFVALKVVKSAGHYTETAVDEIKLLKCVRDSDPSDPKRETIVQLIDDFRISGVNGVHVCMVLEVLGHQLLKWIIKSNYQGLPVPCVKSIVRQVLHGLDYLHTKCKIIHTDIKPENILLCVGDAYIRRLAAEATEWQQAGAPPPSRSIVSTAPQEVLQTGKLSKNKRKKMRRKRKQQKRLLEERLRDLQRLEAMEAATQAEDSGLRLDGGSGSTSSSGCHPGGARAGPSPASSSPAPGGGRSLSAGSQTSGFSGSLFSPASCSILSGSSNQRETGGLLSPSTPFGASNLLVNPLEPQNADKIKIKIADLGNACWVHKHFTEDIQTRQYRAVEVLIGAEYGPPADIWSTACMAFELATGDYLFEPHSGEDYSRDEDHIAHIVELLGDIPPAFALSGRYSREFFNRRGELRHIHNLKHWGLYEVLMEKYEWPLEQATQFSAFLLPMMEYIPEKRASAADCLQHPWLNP
Summary of the method: as §1

ZAK(h) = molecular target: T3, ZAK(h) (Homo sapiens, UniProt Q9NYL2)
T3 construct: gene MAP3K20
T3 sequence (Q9NYL2 whole entry): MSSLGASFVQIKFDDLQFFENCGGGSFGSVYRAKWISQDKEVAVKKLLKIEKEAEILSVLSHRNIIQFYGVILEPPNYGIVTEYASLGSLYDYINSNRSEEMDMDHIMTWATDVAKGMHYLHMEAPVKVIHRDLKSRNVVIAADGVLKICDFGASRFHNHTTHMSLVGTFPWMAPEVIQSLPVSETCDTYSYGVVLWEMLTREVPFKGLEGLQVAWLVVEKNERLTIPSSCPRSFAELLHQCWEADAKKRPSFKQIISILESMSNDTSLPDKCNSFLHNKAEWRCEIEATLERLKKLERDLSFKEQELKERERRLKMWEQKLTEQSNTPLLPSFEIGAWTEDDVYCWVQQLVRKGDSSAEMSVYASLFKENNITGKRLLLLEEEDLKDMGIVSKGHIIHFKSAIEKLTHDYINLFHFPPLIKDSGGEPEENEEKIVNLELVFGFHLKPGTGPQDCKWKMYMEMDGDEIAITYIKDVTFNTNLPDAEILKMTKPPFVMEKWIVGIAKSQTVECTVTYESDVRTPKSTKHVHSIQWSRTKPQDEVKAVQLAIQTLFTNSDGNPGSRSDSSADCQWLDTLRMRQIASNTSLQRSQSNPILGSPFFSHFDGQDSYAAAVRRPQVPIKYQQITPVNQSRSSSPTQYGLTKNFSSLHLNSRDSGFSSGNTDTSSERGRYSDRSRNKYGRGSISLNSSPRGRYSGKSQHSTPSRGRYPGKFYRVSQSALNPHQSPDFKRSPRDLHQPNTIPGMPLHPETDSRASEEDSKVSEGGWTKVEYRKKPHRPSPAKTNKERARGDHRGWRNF
Summary of the method: as §1

IGF-1R(h), activated = molecular target: T4, IGF-1R(h), activated (Homo sapiens, UniProt P08069)
T4 construct: gene IGF1R
Summary of the method: as §1

SRMS(h) = SRMS(h) (Homo sapiens, UniProt Q9H3Y6)
Sequence of SRMS(h) (Q9H3Y6 whole entry): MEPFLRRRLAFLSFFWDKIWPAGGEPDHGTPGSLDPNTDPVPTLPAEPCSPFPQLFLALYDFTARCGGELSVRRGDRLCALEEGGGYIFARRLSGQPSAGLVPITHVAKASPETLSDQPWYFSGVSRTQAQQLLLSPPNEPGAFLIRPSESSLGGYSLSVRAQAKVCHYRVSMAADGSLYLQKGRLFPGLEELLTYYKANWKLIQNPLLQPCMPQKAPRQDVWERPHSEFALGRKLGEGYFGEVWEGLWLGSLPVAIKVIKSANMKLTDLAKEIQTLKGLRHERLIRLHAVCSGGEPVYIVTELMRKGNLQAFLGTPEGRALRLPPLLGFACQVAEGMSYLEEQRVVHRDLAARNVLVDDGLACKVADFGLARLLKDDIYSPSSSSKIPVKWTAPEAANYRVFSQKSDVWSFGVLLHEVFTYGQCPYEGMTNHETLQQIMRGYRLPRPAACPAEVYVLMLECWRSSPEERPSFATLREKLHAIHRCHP
Summary of the method: as §1

MRCKβ(h) = molecular target: T5, MRCKβ(h) (Homo sapiens, UniProt Q9Y5S2)
T5 construct: gene CDC42BPB
Summary of the method: as §1

PAK1(h) = PAK1(h) (Homo sapiens, UniProt Q13153)
Sequence of PAK1(h) (Q13153 whole entry): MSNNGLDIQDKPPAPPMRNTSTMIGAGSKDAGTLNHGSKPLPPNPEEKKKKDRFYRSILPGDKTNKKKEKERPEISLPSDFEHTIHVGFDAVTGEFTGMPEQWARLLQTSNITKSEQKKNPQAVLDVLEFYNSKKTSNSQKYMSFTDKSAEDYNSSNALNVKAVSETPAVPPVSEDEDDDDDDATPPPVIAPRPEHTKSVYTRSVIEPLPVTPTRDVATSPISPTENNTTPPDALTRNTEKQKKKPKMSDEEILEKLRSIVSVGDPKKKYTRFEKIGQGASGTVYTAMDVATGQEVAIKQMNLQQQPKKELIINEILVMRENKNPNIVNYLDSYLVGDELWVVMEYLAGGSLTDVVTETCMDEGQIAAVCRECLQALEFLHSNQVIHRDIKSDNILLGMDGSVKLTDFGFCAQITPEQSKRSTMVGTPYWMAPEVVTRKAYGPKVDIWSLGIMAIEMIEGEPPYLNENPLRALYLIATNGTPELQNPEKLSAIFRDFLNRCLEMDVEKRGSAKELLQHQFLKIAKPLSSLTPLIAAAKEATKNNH
Summary of the method: as §1

STK16(h) = STK16(h) (Homo sapiens, UniProt O75716)
Sequence of STK16(h) (O75716 whole entry): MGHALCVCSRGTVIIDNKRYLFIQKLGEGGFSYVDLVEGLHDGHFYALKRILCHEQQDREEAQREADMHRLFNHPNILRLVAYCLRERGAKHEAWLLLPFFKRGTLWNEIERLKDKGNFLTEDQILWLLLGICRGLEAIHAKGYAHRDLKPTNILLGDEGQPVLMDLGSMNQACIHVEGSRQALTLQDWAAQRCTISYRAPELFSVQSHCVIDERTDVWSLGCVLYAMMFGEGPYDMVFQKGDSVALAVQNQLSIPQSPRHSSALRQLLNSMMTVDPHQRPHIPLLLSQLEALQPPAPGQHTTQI
Summary of the method: as §1

MLK2(h) = molecular target: T6, MLK2(h) (Homo sapiens, UniProt Q02779)
T6 construct: gene MAP3K10
T6 sequence (Q02779 whole entry): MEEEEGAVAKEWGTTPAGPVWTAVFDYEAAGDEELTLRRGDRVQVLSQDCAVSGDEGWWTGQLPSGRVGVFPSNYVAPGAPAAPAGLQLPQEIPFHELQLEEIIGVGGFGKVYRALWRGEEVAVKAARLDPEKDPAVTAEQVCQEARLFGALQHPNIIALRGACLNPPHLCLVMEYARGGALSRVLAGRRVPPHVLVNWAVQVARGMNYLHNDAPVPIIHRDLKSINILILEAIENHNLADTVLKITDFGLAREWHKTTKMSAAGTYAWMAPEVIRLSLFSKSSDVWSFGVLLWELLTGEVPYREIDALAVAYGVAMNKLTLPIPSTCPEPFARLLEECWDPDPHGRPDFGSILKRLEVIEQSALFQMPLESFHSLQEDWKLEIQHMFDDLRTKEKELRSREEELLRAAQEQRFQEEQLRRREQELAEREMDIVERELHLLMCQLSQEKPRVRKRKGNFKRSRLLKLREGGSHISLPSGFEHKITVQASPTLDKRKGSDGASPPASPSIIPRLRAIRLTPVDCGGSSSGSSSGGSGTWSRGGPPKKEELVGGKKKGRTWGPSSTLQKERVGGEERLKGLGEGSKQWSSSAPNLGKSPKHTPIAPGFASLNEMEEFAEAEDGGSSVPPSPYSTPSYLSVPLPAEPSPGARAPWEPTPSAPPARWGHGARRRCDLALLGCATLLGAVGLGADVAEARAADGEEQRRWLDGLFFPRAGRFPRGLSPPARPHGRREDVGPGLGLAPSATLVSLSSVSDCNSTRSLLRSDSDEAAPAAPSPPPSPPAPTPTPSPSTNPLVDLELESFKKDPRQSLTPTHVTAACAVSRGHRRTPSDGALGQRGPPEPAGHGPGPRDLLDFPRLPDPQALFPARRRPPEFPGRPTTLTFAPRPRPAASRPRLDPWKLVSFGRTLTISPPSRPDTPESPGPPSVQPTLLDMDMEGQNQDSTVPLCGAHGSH
Summary of the method: as §1

Hck(h) = Hck(h) (Homo sapiens, UniProt P08631)
Sequence of Hck(h) (P08631 whole entry): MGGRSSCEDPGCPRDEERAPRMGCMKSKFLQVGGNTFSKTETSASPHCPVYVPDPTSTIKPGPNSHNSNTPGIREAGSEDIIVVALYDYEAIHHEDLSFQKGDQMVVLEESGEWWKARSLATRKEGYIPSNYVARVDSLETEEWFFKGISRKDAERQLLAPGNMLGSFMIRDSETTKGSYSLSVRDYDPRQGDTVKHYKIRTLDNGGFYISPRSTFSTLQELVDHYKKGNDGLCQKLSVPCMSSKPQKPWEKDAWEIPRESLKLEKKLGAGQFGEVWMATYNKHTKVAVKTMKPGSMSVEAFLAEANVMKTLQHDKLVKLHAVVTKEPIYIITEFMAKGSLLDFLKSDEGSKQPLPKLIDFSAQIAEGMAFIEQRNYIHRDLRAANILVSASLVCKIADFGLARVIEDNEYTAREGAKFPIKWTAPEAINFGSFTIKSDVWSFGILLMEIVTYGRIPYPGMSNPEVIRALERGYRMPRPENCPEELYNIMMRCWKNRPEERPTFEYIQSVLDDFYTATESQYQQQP
Summary of the method: as §1

PKD3(h) = molecular target: T7, PKD3(h) (Homo sapiens, UniProt O94806)
T7 construct: gene PRKD3
T7 sequence (O94806 1-890): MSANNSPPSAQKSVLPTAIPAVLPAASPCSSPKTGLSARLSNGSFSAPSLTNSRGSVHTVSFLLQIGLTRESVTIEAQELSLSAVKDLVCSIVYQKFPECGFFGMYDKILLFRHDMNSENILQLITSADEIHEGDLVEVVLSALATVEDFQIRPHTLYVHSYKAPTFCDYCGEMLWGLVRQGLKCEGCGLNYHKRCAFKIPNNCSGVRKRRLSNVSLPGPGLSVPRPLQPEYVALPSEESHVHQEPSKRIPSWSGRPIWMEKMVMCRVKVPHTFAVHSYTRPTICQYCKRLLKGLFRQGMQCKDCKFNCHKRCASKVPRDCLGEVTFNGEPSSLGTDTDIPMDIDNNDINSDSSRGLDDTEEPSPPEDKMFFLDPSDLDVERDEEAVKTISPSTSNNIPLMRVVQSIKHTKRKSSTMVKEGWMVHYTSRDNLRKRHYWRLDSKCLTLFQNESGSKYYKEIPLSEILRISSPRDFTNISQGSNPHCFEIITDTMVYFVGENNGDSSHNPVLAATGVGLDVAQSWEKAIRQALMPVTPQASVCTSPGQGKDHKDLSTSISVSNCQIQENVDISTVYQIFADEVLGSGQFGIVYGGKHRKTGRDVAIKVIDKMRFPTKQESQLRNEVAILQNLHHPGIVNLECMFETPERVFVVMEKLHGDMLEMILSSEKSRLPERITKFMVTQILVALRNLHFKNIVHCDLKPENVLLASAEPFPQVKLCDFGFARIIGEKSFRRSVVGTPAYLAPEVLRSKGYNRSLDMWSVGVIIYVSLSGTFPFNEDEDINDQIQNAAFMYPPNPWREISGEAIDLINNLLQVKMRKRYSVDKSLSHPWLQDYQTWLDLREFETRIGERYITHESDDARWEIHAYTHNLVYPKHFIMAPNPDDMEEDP
Summary of the method: as §1

[1] = read-out: Residual activity (%) Spautin-1 5aa
[2] = read-out: Residual activity (%) 5as
[3] = read-out: Residual activity (%) 5at
[4] = read-out: Residual activity (%) 5ay

In the case of Fc1ccc(CNc2ncnc3ccc(F)cc23)cc1 [5aa, 6-Fluoro-N-(4-fluorobenzyl)-4-Quinazolinamine], the remaining activity at 10 µM (PIP5K1g(h); [1]) is reported as 100%, the remaining activity at 10 µM (MSSK1(h); [1]) is reported as 85% and the remaining activity at 10 µM (ZAK(h); [1]) is reported as 70%. It also gave a remaining activity at 10 µM (IGF-1R(h), activated; [1]) of 78%, a remaining activity at 10 µM (SRMS(h); [1]) of 86% and a remaining activity at 10 µM (MRCKβ(h); [1]) of 80%. The remaining activity at 10 µM (PAK1(h); [1]) was 94%, the remaining activity at 10 µM (STK16(h); [1]) was 88% and the remaining activity at 10 µM (MLK2(h); [1]) was 95%. The remaining activity at 10 µM (Hck(h); [1]) was 72% and the remaining activity at 10 µM (PKD3(h); [1]) was 100%.

Fc1ccc(CCNc2ncnc3ccc(F)cc23)cc1 [5as, 6-Fluoro-N-[2-(4-Fluorophenyl)Ethyl]-4-Quinazolinamine] showed a remaining activity at 10 µM (PIP5K1g(h); [2]) of 104%, a remaining activity at 10 µM (MSSK1(h); [2]) of 91% and a remaining activity at 10 µM (ZAK(h); [2]) of 61%. The remaining activity at 10 µM (IGF-1R(h), activated; [2]) was 72%, the remaining activity at 10 µM (SRMS(h); [2]) was 84% and the remaining activity at 10 µM (MRCKβ(h); [2]) was 84%. It also gave a remaining activity at 10 µM (PAK1(h); [2]) of 81%, a remaining activity at 10 µM (STK16(h); [2]) of 75% and a remaining activity at 10 µM (MLK2(h); [2]) of 97%. The remaining activity at 10 µM (Hck(h); [2]) was 74% and the remaining activity at 10 µM (PKD3(h); [2]) was 114%.

Fc1ccc2ncnc(NCCc3ccc(Cl)cc3)c2c1 [5at, N-[2-(4-Chlorophenyl)Ethyl]-6-Fluoro-4-Quinazolinamine] was tested, and the remaining activity at 10 µM (PIP5K1g(h); [3]) was 101%, the remaining activity at 10 µM (MSSK1(h); [3]) was 95% and the remaining activity at 10 µM (ZAK(h); [3]) was 72%. For the same compound, the remaining activity at 10 µM (IGF-1R(h), activated; [3]) was 76%, the remaining activity at 10 µM (SRMS(h); [3]) was 71% and the remaining activity at 10 µM (MRCKβ(h); [3]) was 103%. For the same compound, the remaining activity at 10 µM (PAK1(h); [3]) was 90%, the remaining activity at 10 µM (STK16(h); [3]) was 78% and the remaining activity at 10 µM (MLK2(h); [3]) was 93%. The remaining activity at 10 µM (Hck(h); [3]) was 62% and the remaining activity at 10 µM (PKD3(h); [3]) was 102%.

With COc1ccc2ncnc(Nc3cccc(F)c3)c2c1 [5ay, N-(3-Fluorophenyl)-6-Methoxy-4-Quinazolinamine] the remaining activity at 10 µM (PIP5K1g(h); [4]) was 107%, the remaining activity at 10 µM (MSSK1(h); [4]) was 81% and the remaining activity at 10 µM (ZAK(h); [4]) was 61%. For the same compound, the remaining activity at 10 µM (IGF-1R(h), activated; [4]) was 73%, the remaining activity at 10 µM (SRMS(h); [4]) was 78% and the remaining activity at 10 µM (MRCKβ(h); [4]) was 79%. For the same compound, the remaining activity at 10 µM (PAK1(h); [4]) was 97%, the remaining activity at 10 µM (STK16(h); [4]) was 76% and the remaining activity at 10 µM (MLK2(h); [4]) was 96%. The remaining activity at 10 µM (Hck(h); [4]) was 64% and the remaining activity at 10 µM (PKD3(h); [4]) was 91%.
